The subject of experiment [1] is DU145 cells. Put plainly: PARP cleavage Western blot, DU145 cells treated with CPT. Type of experiment: cell-based, human. The settings on record: 100 nM CPT 24 hours, vs untreated control cells. How it is done:
FIGS. 1A-D are a series of photomicrographs and bar graphs showing ECV-mediated reversal of apoptosis resistance and sensitivity. A, B. ECVs were isolated from DU145 S and DU145 R prostate cells. The ECVs were resuspended in PBS. DU145 S cells were co-cultured with DU145 R ECVs and DU145 R cells were co-cultured with DU145 S ECVs. Non-ECV and ECV co-cultured cells were treated with 100 nM of the anticancer agent camptothecin (CPT) for 24 hours and examined for PARP cleavage and actin via Western blot analysis to measure apoptosis. C, D. The same experiment from A and B was repeated and the samples were examined for apoptosis via propidium iodide staining using a flow cytometer. […]
Total cell extracts were prepared as previously described, and protein concentrations of lysates were determined using a Bradford assay kit (BioRad). […] Proteins recognized by antibodies were detected by enhanced chemilluminescence reagents (GE Healthcare).
To investigate the effects of ECV-mediated transfer of chemoresistance in prostate cancer, the mechanism of resistance to camptothecin (CPT) was studied in human prostate cancer cell lines. […] After six days, both groups were treated with CPT, cells were harvested and analyzed for apoptosis via Poly ADP Ribose Polymerase (PARP) cleavage. […] The same experiment was repeated, and the cells were analyzed for apoptosis via flow cytometry.
In general terms: Immunoblotting shows a protein as a band on a membrane.

The subject of experiment [2] is MDR breast cancer cells. Briefly: PARP cleavage Western blot, MDR cells treated with Dox. Type of experiment: cell-based, human. As to conditions: Dox 24 hours. How it is done: (§1) FIG. 8 is a photomicrograph showing MCF7 and MDR breast cancer cells treated with the indicated doses of doxorubicin (Dox) for 24 hours. Western blot analysis was performed to measure the cleavage of PARP (an indicator of apoptosis induction).
FIG. 9 is a photomicrograph of a Western blot analysis for PARP cleavage and actin in protein lysates isolated from MDR (resistant) cells that were co-cultured with MCF7 (sensitive) ECVs for three days then treated with the indicated concentrations of Dox.
(§2) The transfer of chemosensitivity of MCF7 (sensitive) and MCF/MDR (resistant) (MDR) breast cancer cells that are sensitive or resistant, respectively to doxorubicin (Dox) was explored. These cells, similar to the prostate cancer cells, were grown in medium with serum that was depleted of ECVs.
A reciprocal experiment was performed and ECVs from MCF-7 (sensitive) cells were isolated and co-cultured with MDR (resistant) cells for three days. The MDR (resistant) cells were treated with two doses of Dox.

Experiment [3] relates to MCF7 breast cancer cells. Briefly: PARP cleavage Western blot, MCF7 cells treated with Dox. It is filed as cell-based, human. As to conditions: Dox 24 hours. How it is done:
as §1, §2

In experiment [4] the test system is MCF-7 cells. Put plainly: Apoptosis by flow cytometry, MCF-7 cells treated with Dox. It is filed as cell-based, human. The settings on record: 10 nM Dox 24 hours. How it is done: FIG. 10 is a bar graph showing the amount of apoptosis in MCF-7 cells that were treated with 10 nM Dox for 24 hours in the presence or absence of MDR ECVs. Cells were harvested and apoptosis measured by flow cytometry. A paired t-test was performed * comparing Dox-treated MCF7 cells and MCF7 cells co-cultured with MDR ECVs. * A paired t-test (p<0.0005) was performed comparing the reduction in soft agar colony formation between Dox treated and MCF7+MDR ECVs+Dox.
The reciprocal experiment from FIG. 9 was performed, and ECVs were isolated from MDR (resistant) cells and co-cultured with MCF7 (sensitive) cells for three days and treated with 10 nM Dox. The cells were analyzed for apoptosis induction by flow cytometry.
Background: Flow cytometry measures light scatter and fluorescence of single cells or particles in a stream.

For experiment [5], the system named is DU145 cell line. The settings on record: DU145 cell line treated with 9NC; cited from earlier work.

As for `CC[C@@]1(O)C(=O)OCc2c1cc1n(c2=O)Cc2cc3ccccc3nc2-1` [CPT, camptothecin], the PARP cleavage result in experiment [1] is “increase in PARP cleavage”.

On to `COc1cccc2c1C(=O)c1c(O)c3c(c(O)c1C2=O)C[C@@](O)(C(=O)CO)C[C@@H]3O[C@H]1C[C@H](N)[C@H](O)[C@H](C)O1` [Dox, doxorubicin], for which the figures for the “apoptosis measured by cleavage of PARP” value in experiment [2] and in experiment [3] were “remained resistant” and “sensitive to dose-dependent induction of apoptosis”, respectively. Further, the apoptosis entry in experiment [4] was “underwent significant apoptosis”.

Take `CC[C@@]1(O)C(=O)OCc2c1cc1n(c2=O)Cc2cc3c([N+](=O)[O-])cccc3nc2-1` [9NC, 9-nitrocamptothecin]: the apoptosis result in experiment [5] was “extensive apoptosis”.

These data come from US20150297639A1, “TREATING CANCER” (Rhode Island Hospital, A Lifespan-Partner, priority 2012, published 2015).
